Assay results as given in ChEMBL document CHEMBL4392848, “Proline-based hydroxamates targeting the zinc-dependent deacetylase LpxC: Synthesis, antibacterial properties, and docking studies” (Bioorg Med Chem, 2019).
Converted amounts (≈) assume the structure as drawn. The source made the active and inactive calls. The calls are words filed in the database; no cut-off is given here.

Experiments:
Escherichia coli [1] = experiment: Antibacterial activity against Escherichia coli BL21(DE3) assessed as diameter of inhibition zone measured after overnight incubation by agar disc diffusion method; assay type: functional
Escherichia coli [2] = experiment: Antibacterial activity against Escherichia coli D22 assessed as diameter of inhibition zone measured after overnight incubation by agar disc diffusion method; assay type: functional
Escherichia coli [3] = experiment: Antibacterial activity against Escherichia coli BL21(DE3) measured after 20 hrs by microdilution method; assay type: functional
Escherichia coli [4] = experiment: Antibacterial activity against Escherichia coli D22 measured after 20 hrs by microdilution method; assay type: functional; details: D22, 20 h
[5] = Inhibition of Escherichia coli LpxC C63A mutant using UDP-3-O-[(R)-3-hydroxymyristoyl]-N-acetylglucosamine as substrate measured after 30 mins by fluorescence based microplate assay
Klebsiella pneumoniae = experiment: Antibacterial activity against Klebsiella pneumoniae assessed as diameter of inhibition zone measured after 24 hrs by agar disc diffusion method; assay type: functional
Klebsiella oxytoca = experiment: Antibacterial activity against Klebsiella oxytoca assessed as diameter of inhibition zone measured after 24 hrs by agar disc diffusion method; assay type: functional
Enterobacter cloacae = experiment: Antibacterial activity against Enterobacter cloacae assessed as diameter of inhibition zone measured after 24 hrs by agar disc diffusion method; assay type: functional
Klebsiella aerogenes = experiment: Antibacterial activity against Enterobacter aerogenes assessed as diameter of inhibition zone measured after 24 hrs by agar disc diffusion method; assay type: functional
Proteus mirabilis = experiment: Antibacterial activity against Proteus mirabilis assessed as diameter of inhibition zone measured after 24 hrs by agar disc diffusion method; assay type: functional
Proteus vulgaris = experiment: Antibacterial activity against Proteus vulgaris assessed as diameter of inhibition zone measured after 24 hrs by agar disc diffusion method; assay type: functional
Citrobacter freundii = experiment: Antibacterial activity against Citrobacter freundii assessed as diameter of inhibition zone measured after 24 hrs by agar disc diffusion method; assay type: functional
Pseudomonas aeruginosa = experiment: Antibacterial activity against Pseudomonas aeruginosa assessed as diameter of inhibition zone measured after 24 hrs by agar disc diffusion method; assay type: functional
[6] = biological target: 72 kDa type IV collagenase (Homo sapiens, UniProt P08253); experiment: Inhibition of human MMP2 using (7-methoxycoumarin-4-yl)acetyl-Pro-Leu-Gly-Leu-(3-(2,4-dinitrophenyl)-L-2,3-diamino-propionyl)Ala-Arg-NH2 as substrate preincubated for 30 mins followed by substrate addition and measured by fluorescence assay
Sequence of 72 kDa type IV collagenase (P08253 whole entry): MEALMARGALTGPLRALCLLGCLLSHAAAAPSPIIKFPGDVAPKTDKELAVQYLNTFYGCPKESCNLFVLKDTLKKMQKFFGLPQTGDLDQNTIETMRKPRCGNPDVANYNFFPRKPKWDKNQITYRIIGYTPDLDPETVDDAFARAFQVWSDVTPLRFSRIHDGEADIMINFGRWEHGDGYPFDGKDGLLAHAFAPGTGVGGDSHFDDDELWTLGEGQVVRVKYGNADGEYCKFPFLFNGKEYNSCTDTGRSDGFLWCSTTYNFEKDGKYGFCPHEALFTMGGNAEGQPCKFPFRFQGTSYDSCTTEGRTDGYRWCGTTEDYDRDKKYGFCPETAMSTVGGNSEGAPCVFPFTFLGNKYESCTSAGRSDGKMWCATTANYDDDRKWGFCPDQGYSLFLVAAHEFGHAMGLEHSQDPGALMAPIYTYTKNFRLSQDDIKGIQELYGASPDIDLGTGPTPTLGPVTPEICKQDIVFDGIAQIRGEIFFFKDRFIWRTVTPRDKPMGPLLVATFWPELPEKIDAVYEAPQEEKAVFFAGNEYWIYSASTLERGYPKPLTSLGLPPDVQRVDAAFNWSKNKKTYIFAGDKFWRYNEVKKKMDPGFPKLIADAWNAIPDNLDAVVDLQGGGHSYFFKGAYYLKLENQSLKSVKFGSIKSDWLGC

Neutrophil collagenase = Neutrophil collagenase (Homo sapiens, UniProt P22894); experiment: Inhibition of human MMP8 using (7-methoxycoumarin-4-yl)acetyl-Pro-Leu-Gly-Leu-(3-(2,4-dinitrophenyl)-L-2,3-diamino-propionyl)Ala-Arg-NH2 as substrate preincubated for 30 mins followed by substrate addition and measured by fluorescence assay
Sequence of Neutrophil collagenase (P22894 whole entry): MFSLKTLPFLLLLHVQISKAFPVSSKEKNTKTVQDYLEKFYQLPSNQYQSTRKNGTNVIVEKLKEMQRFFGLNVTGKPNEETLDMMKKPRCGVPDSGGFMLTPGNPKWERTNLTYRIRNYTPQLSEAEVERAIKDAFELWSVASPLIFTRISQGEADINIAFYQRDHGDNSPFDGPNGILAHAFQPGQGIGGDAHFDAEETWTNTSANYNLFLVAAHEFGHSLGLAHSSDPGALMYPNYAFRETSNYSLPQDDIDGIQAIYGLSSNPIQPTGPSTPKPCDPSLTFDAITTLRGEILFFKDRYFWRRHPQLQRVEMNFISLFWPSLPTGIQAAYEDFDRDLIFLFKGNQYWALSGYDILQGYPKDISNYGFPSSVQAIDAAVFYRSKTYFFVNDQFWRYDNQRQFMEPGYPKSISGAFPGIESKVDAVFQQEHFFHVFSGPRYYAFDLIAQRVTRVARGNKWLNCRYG

[7] = biological target: Matrix metalloproteinase-9 (Homo sapiens, UniProt P14780); experiment: Inhibition of human MMP9 using (7-methoxycoumarin-4-yl)acetyl-Pro-Leu-Gly-Leu-(3-(2,4-dinitrophenyl)-L-2,3-diamino-propionyl)Ala-Arg-NH2 as substrate preincubated for 30 mins followed by substrate addition and measured by fluorescence assay
Sequence of Matrix metalloproteinase-9 (P14780 whole entry): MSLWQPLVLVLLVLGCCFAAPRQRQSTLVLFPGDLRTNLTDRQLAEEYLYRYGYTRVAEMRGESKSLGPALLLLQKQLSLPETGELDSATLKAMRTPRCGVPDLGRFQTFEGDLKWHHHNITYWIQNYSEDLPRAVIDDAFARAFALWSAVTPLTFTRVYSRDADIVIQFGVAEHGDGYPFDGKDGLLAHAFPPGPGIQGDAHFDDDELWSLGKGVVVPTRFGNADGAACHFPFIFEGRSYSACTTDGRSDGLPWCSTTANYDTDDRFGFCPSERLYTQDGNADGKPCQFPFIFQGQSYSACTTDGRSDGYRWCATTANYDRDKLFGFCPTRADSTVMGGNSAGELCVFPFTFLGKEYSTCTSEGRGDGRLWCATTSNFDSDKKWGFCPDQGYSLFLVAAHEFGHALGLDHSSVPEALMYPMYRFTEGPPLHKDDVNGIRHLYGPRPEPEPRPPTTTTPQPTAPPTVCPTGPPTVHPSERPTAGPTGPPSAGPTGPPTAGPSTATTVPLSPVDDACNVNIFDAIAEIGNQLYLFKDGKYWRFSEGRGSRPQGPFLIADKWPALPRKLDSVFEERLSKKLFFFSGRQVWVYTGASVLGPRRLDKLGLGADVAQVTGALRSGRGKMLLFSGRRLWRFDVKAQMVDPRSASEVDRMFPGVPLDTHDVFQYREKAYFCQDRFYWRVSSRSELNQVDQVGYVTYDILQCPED

Collagenase 3 = Collagenase 3 (Homo sapiens, UniProt P45452); experiment: Inhibition of human MMP13 using (7-methoxycoumarin-4-yl)acetyl-Pro-Leu-Gly-Leu-(3-(2,4-dinitrophenyl)-L-2,3-diamino-propionyl)Ala-Arg-NH2 as substrate preincubated for 30 mins followed by substrate addition and measured by fluorescence assay
Escherichia coli [8] = experiment: Inhibition of Escherichia coli LpxC C63A mutant at 200 uM using UDP-3-O-[(R)-3-hydroxymyristoyl]-N-acetylglucosamine as substrate measured after 30 mins by fluorescence based microplate assay

| Structure (SMILES) | diameter of the inhibition zone (DIZ) (Escherichia coli [1]) [mm] | diameter of the inhibition zone (DIZ) (Escherichia coli [2]) [mm] | MIC (Escherichia coli [3]) [µM] | MIC (Escherichia coli [4]) [µM] | IC50 [5] [µM] | Ki [5] [µM] | diameter of the inhibition zone (DIZ) (Klebsiella pneumoniae) [mm] | diameter of the inhibition zone (DIZ) (Klebsiella oxytoca) [mm] | diameter of the inhibition zone (DIZ) (Enterobacter cloacae) [mm] | diameter of the inhibition zone (DIZ) (Klebsiella aerogenes) [mm] | diameter of the inhibition zone (DIZ) (Proteus mirabilis) [mm] | diameter of the inhibition zone (DIZ) (Proteus vulgaris) [mm] | diameter of the inhibition zone (DIZ) (Citrobacter freundii) [mm] | diameter of the inhibition zone (DIZ) (Pseudomonas aeruginosa) [mm] | IC50 [6] [µM] | IC50 (Neutrophil collagenase) [µM] | IC50 [7] [µM] | IC50 (Collagenase 3) [µM] | inhibition (Escherichia coli [8]) |
| --- | --- | --- | --- | --- | --- | --- | --- | --- | --- | --- | --- | --- | --- | --- | --- | --- | --- | --- | --- |
| O=C(NO)[C@@H]1CCCN1Cc1ccc(C#Cc2ccc(CN3CCOCC3)cc2)cc1 | 15 | 25 | 128 (≈ 53.7 µg/mL) | 4 (≈ 1.68 µg/mL) | 10.5 | 1.4 | 20 | 13 | 20 | 18 | 18 | 12 | 16 | <6 | 3 | 5 | > 10 | 0.939 | – |
| O=C(NO)[C@@H]1C[C@@H](O)CN1Cc1ccc(C#Cc2ccc(CN3CCOCC3)cc2)cc1 | 12.3 | 21 | > 256 | 8 (≈ 3.48 µg/mL) | 62.1 | 8.6 | 7 | <6 | <6 | <6 | <6 | <6 | <6 | <6 | > 10 | > 10 | > 10 | > 10 | – |
| O=C(NO)[C@H]1[C@H](O)[C@H](O)CN1C(=O)c1ccc(C#Cc2ccc(CN3CCSCC3)cc2)cc1 | <6 | 8.3 | > 256 | 128 (≈ 61.6 µg/mL) | > 200 | > 27.6 | <6 | 7 | <6 | <6 | <6 | <6 | <6 | <6 | > 10 | – | > 10 | 5 | inactive |
| O=C(NO)[C@H]1CCCN1C(=O)c1ccc(C#Cc2ccc(CN3CCOCC3)cc2)cc1 | 11.3 | 24.7 | > 256 | 8 (≈ 3.47 µg/mL) | 63.4 | 8.7 | 11 | 8 | 9 | 9 | 9 | <6 | 12 | <6 | 0.503 | 0.05 | 0.731 | 0.636 | – |
| O=C(NO)[C@@H]1C[C@H](O)CN1C(=O)c1ccc(C#Cc2ccc(CN3CCOCC3)cc2)cc1 | 11.3 | 19.5 | > 256 | 16 (≈ 7.19 µg/mL) | 29.5 | 4.1 | 10 | 8 | 8 | 15 | 11 | 9 | 12 | <6 | 0.055 | 0.198 | 1 | 0.057 | – |
